Measurements as given in patent US20100160369A1, “S1P1 Agonists and Methods of Making And Using” (EXELIXIS, INC., priority 2008, published 2010).

Tests used:
S1P1 [1] = biological target: T1, S1P1 (Homo sapiens, UniProt P21453); test: DELFIA GTP-Eu Binding Assay (Assay 3b); type: biochemical; parameters: purchased Lonza; host or cells: CHO cell membranes; details: read-out: Assay 3b EC50
Protocol: The DELFIA GTP-Eu binding assay (PerkinElmer) is a time-resolved fluorometric assay based on GDP-GTP exchange. CHO cell membranes (Lonza) expressing human S1P1 were incubated in 96-well filter plates (Pall, East Hills, N.Y.) in a final volume of 100 μL/well buffer containing 40 μg/mL membrane, 50 mM HEPES, 2 μM GDP, 10 mM MgCl2, 100 mM NaCl, 500 μg/mL Saponin and test compound. Test compounds were tested at maximum concentrations of 10 μM. Compounds were diluted (10 concentration points, 3-fold each) and added to the assay plate at a 1% final DMSO concentration. For each compound, there were duplicate assay plates and each assay plate had duplicate wells per concentration point. The plates were incubated for 30 min at room temperature on a plate shaker at low speed. GTP-Eu was added to each well (10 μL, 10 nM final concentration) and the plate was incubated for an additional 30 min with slow shaking The wells were washed with ice cold GTP washing buffer (3×150 μL) using a vacuum manifold and the assay plates read in an EnVision plate reader (PerkinElmer) at an excitation wavelength of 340 nm and an emission wavelength of 615 nm. To determine agonist activity, percent activity was calculated as [(test compound−background)/(positive control−background)*100], where background is the fluorescence in absence of compound and the positive control is the fluorescence from membranes incubated with 1 μM S1P (Avanti). The percent activities were plotted against compound concentration to determine IC50 or EC50 using XLFit (IDBS).
Assay 1 is the CNG cAMP Assay as described in Biological Example 1. Assay 2a and 2b are the Tango™ β-arrestin Recruitment Assay in HEK293 and U2OS cells, respectively, as described in Biological Example 2. Assay 3a is the hS1P1R GTPγS Binding Assay as described in Biological Example 3. Assay 3b is the GTP-Eu Binding Assay as described in Biological Example 3. EC50's were measured unless otherwise noted. […] In the table, “nt” means the Compound was not tested and “no” means the compound was tested but had no measurable activity under the assay conditions employed.

S1P1 [2] = biological target: T1, S1P1; test: CNG cAMP Assay (Assay 1); type: cell-based; parameters: host or cells: HEK293 cells expressing the CNG channel; details: read-out: Assay 1 EC50
How it was run: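 HEK293 cells expressing CNG channel and S1P1, membrane-potential dye loaded; compounds (top 10 μM, 10-point 3-fold, 1.8% DMSO) added with 25 μM Ro 20-1724, 500 nM NECA and 10 nM S1P for 90 min. T90/T0 fluorescence (Ex 350/Em 590 nm) normalised to NECA-alone vs DMSO; EC50 fitted.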

T1 sequence (P21453 whole entry): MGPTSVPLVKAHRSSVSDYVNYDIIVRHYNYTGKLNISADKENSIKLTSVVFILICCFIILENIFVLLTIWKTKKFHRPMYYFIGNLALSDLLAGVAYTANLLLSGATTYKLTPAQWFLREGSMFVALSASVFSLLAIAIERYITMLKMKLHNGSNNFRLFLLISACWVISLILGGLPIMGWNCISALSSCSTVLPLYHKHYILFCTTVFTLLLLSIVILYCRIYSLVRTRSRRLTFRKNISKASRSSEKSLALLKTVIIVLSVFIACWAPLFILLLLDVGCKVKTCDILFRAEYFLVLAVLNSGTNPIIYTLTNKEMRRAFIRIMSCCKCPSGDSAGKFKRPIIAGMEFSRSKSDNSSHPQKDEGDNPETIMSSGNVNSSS

Row | EC50 (S1P1 [1]) [nM] | EC50 (S1P1 [2]) [nM] | Compound
1 | ≤ 100 | ≤ 100 | O=C(O)CCc1cc(Cl)c(-c2noc(-c3cn4cc(C(F)(F)F)cc(Cl)c4n3)n2)cc1F [Entry 24]
2 | 100 to 500 | ≤ 100 | O=C(O)CCc1cc(Cl)c(-c2noc(-c3cn4cc(C(F)(F)F)cc(Br)c4n3)n2)cc1F [Entry 49]
3 | ≤ 100 | ≤ 100 | Cc1cc(CCC(=O)O)c(Cl)cc1-c1noc(-c2cn3cc(C(F)(F)F)cc(Cl)c3n2)n1 [Entry 56]
4 | ≤ 100 | ≤ 100 | C[C@H](CO)Oc1cc(Cl)c(-c2noc(-c3cn4cc(C(F)(F)F)cc(Cl)c4n3)n2)cc1F [Example 93, (2R)-2-[(5-chloro-4-{5-[8-chloro-6-(trifluoromethyl)imidazo[1,2-a]pyridin-2-yl]-1,2,4-oxadiazol-3-yl}-2-fluorophenyl)oxy]propan-1-ol]
5 | ≤ 100 | ≤ 100 | O=C(O)CCc1cc(Cl)c(-c2nnc(-c3cn4cc(C(F)(F)F)cc(Cl)c4n3)s2)cc1F [Example 176, 3-(5-chloro-4-{5-[8-chloro-6-(trifluoromethyl)imidazo[1,2-a]pyridin-2-yl]-1,3,4-thiadiazol-2-yl}-2-fluorophenyl)propanoic acid]
6 | ≤ 100 | ≤ 100 | O=C(O)CCc1cc(Cl)c(-c2nnc(-c3cn4cc(C(F)(F)F)cc(Br)c4n3)s2)cc1F [Example 177, 3-(4-{5-[8-bromo-6-(trifluoromethyl)imidazo[1,2-a]pyridin-2-yl]-1,3,4-thiadiazol-2-yl}-5-chloro-2-fluorophenyl)propanoic acid]
7 | 100 to 500 | ≤ 100 | OCC(O)COc1cc(Cl)c(-c2noc(-c3cn4cc(C(F)(F)F)cc(Cl)c4n3)n2)cc1Cl (stereo not drawn) [Example 208, 3-[(2,5-dichloro-4-{5-[8-chloro-6-(trifluoromethyl)imidazo[1,2-a]pyridin-2-yl]-1,2,4-oxadiazol-3-yl}phenyl)oxy]propane-1,2-diol]
8 | 100 to 500 | ≤ 100 | O=C(O)CCc1cc(Cl)c(-c2nc(-c3cn4cc(C(F)(F)F)cc(Cl)c4n3)no2)cc1F [Example 233, 3-(5-chloro-4-{3-[8-chloro-6-(trifluoromethyl)imidazo[1,2-a]pyridin-2-yl]-1,2,4-oxadiazol-5-yl}-2-fluorophenyl)propanoic acid]
9 | ≤ 100 | ≤ 100 | O=C(O)CCc1cc(Cl)c(-c2noc(-c3cn4cc(C(F)(F)F)cc(Cl)c4n3)n2)cc1Cl [Example 242, 3-(2,5-dichloro-4-{5-[8-chloro-6-(trifluoromethyl)imidazo[1,2-a]pyridin-2-yl]-1,2,4-oxadiazol-3-yl}phenyl)propanoic acid]
10 | 100 to 500 | ≤ 100 | OCCOc1cc(Cl)c(-c2noc(-c3cn4cc(C(F)(F)F)cc(Cl)c4n3)n2)cc1F [Example 263, 2-[(5-chloro-4-{5-[8-chloro-6-(trifluoromethyl)imidazo[1,2-a]pyridin-2-yl]-1,2,4-oxadiazol-3-yl}-2-fluorophenyl)oxy]ethanol]
11 | ≤ 100 | ≤ 100 | CC(C)Oc1cc(Cl)c2nc(-c3nc(-c4cc(F)c(CCC(=O)O)cc4Cl)no3)cn2c1 [Example 301, 3-[5-chloro-4-(5-{8-chloro-6-[(1-methylethyl)oxy]imidazo[1,2-a]pyridin-2-yl}-1,2,4-oxadiazol-3-yl)-2-fluorophenyl]propanoic acid]
12 | ≤ 100 | ≤ 100 | O=C(O)CCc1cc(Cl)c(-c2noc(-c3cn4cc(I)cc(Cl)c4n3)n2)cc1F [Example 302, 3-{5-chloro-4-[5-(8-chloro-6-iodoimidazo[1,2-a]pyridin-2-yl)-1,2,4-oxadiazol-3-yl]-2-fluorophenyl}propanoic acid]
